Laboratory results reported in US20250236609A1, “VPS34 INHIBITORS AND METHODS OF USE THEREOF” (Deciphera Pharmaceuticals, LLC, priority 2023, published 2025).
pIC50: −log10 of the molar value.

Target: VPS34 (Homo sapiens (Human), UniProt Q8NEB9)
Assay: Biochemical Assay for VPS34 (ADP-Glo kinase activity assay)
Settings: 25 nM VPS34, 1 mM ATP, 1-hour incubation at 37° C.; read-out: VPS34 (Inhibition of biochemical activity of VPS34, IC50)
Protocol: Activity of VPS34 kinase was determined using an ADP-Glo kinase activity assay (Promega Corp). Assays were conducted in 384-well plates (5 μL assay volume) using 25 nM VPS34 (ThermoFisher Scientific), […] PI:3PS Lipid Kinase Substrate (Promega Corp.), and 1 mM ATP in kinase buffer. Inhibition of VPS34 was measured by adding serial diluted test compound (final assay concentration of 0.1% DMSO) followed by a 1-hour incubation at 37° C. ADP-Glo reagent was then added ([…]) followed by a 40 min incubation at rt. Kinase detection reagent was then added ([…]) and followed by a 60 min incubation at rt. Luminescence was then detected. The RLU at each compound concentration of was converted to percent inhibition using controls (i.e., reaction with no test compound and reaction with a known inhibitor) and IC50 values were calculated by fitting a four-parameter sigmoidal curve to the data using GeneData Screener software.
VPS34 Protein Sequence (Full Length with GST Tag)

Sequence of VPS34 (Q8NEB9 other isoform, or with tags, fused parts or gaps): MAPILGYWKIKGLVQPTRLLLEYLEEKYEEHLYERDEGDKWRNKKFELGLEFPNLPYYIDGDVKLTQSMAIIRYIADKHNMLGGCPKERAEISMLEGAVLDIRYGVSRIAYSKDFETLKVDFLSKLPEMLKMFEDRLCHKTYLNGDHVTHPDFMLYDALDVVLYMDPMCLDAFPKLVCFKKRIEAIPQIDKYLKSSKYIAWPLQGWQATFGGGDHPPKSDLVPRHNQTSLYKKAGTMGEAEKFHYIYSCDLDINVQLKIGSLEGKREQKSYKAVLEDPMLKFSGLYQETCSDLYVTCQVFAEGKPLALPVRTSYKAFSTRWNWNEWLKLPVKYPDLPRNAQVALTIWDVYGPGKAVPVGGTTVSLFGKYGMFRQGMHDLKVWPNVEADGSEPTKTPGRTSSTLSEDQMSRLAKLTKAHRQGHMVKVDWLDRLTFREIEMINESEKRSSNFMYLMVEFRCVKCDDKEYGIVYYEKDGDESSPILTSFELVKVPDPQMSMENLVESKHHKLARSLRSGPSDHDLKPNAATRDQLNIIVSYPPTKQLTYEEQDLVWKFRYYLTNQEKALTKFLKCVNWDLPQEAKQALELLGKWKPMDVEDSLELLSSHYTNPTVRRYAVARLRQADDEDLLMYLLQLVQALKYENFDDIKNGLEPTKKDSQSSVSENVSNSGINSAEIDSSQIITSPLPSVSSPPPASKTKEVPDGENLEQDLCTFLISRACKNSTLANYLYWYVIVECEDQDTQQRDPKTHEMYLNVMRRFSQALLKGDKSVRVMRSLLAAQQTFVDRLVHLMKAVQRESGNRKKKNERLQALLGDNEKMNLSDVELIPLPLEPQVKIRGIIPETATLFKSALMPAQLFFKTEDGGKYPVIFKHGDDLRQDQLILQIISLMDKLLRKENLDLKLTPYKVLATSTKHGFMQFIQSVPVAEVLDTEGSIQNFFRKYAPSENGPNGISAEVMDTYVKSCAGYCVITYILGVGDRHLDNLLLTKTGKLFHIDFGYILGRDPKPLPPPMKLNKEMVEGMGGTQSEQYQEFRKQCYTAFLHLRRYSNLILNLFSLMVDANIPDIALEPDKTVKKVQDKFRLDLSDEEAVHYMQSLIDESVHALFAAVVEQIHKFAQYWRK

Row | SMILES | pIC50
1 | Cc1cncc(Nc2cc(-c3cc(N4CCCC[C@@H]4C(F)(F)F)[nH]c(=O)c3)c(C)cn2)n1 [Example 2, (R)-5′-methyl-2′-((6-methylpyrazin-2-yl)amino)-6-(2-(trifluoromethyl)piperidin-1-yl)-[4,4′-bipyridin]-2(1H)-one] | ≥ 7.00
2 | Cc1cnc(NC(=O)CC2CN(C)C2)cc1-c1cc(N2CCCC[C@@H]2C(F)(F)F)[nH]c(=O)c1 [Example 3, (R)-N-(5-methyl-2′-oxo-6′-(2-(trifluoromethyl)piperidin-1-yl)-1′,2′-dihydro-[4,4′-bipyridin]-2-yl)-2-(1-methylazetidin-3-yl)acetamide] | 6.30 to 7.00
3 | COC(=O)Nc1ncc(C)c(-c2cc(N3CCCC[C@@H]3C(F)(F)F)[nH]c(=O)c2)n1 [Example 8] | 6.30 to 7.00
4 | CC(=O)Nc1cc(-c2cc(-c3cccnc3C(F)(F)F)[nH]c(=O)c2)c(C)cn1 [Example 9] | 6.30 to 7.00
5 | COC(=O)Nc1cc(-c2cc(-c3cccnc3C(F)(F)F)[nH]c(=O)c2)c(C2CC2)cn1 [Example 11] | 5.00 to 6.00
6 | Cc1cnccc1-c1cc(N2CCCC[C@@H]2C(F)(F)F)[nH]c(=O)c1 [Example 13] | 5.00 to 6.00
7 | Cc1cnc(NC(=O)CN(C)C)cc1-c1cc(N2CCCC[C@@H]2C(F)(F)F)[nH]c(=O)c1 [Example 19] | 5.00 to 6.00
8 | Cc1cnc(NC(=O)CC2CN(C)CC2(F)F)cc1-c1cc(N2CCCC[C@@H]2C(F)(F)F)[nH]c(=O)c1 (some centres unmarked) [Example 21] | 6.00 to 6.30
9 | Cc1cnc(N)cc1-c1cc(N2CCCC[C@@H]2C(F)(F)F)[nH]c(=O)c1 [Example 23] | 5.00 to 6.00
10 | Cc1cnc(Nc2cnn(C)c2)cc1-c1cc(N2CCCC[C@@H]2C(F)(F)F)[nH]c(=O)c1 [Example 29] | 6.00 to 6.30
11 | Cc1cnc(NC(=O)OC2CC2)cc1-c1cc(N2CCCC[C@@H]2C(F)(F)F)[nH]c(=O)c1 [Example 30] | 6.30 to 7.00
12 | Cc1cnc(NC(=O)c2cnn(C)c2)cc1-c1cc(N2CCCC[C@@H]2C(F)(F)F)[nH]c(=O)c1 [Example 31] | 6.00 to 6.30
13 | COC(=O)Nc1cc(-c2cc(N3CCN(S(=O)(=O)CCN(C)C)C[C@@H]3C(F)(F)F)[nH]c(=O)c2)c(C)cn1 [Example 32] | 6.30 to 7.00
14 | Cc1cnc(Nc2cnn(C)c2)cc1-c1cc(-c2cccnc2C(F)(F)F)[nH]c(=O)c1 [Example 33] | 6.00 to 6.30
15 | COC(=O)Nc1cc(-c2cc(N3CCN(S(=O)(=O)CCN(C)C)C[C@@H]3C)[nH]c(=O)c2)c(C)cn1 [Example 34] | ≥ 7.00
16 | CNCCC(=O)Nc1cc(-c2cc(N3CCCC[C@@H]3C(F)(F)F)[nH]c(=O)c2)c(C)cn1 [Example 35] | 6.00 to 6.30
17 | COC(=O)Nc1cc(-c2cc(N3CCOC[C@H]3C(F)(F)F)[nH]c(=O)c2)c(C)cn1 [Example 36] | 5.00 to 6.00
18 | COC(=O)Nc1cc(-c2cc(N3CCOC[C@@H]3C(F)(F)F)[nH]c(=O)c2)c(C)cn1 [Example 37] | ≥ 7.00
19 | Cc1cnc(Nc2cn(C)nn2)cc1-c1cc(N2CCCC[C@@H]2C(F)(F)F)[nH]c(=O)c1 [Example 39] | 6.00 to 6.30
20 | Cc1cnnc(Nc2cc(-c3cc(N4CCCC[C@@H]4C(F)(F)F)[nH]c(=O)c3)c(C)cn2)c1 [Example 40] | 6.00 to 6.30
21 | Cc1cnc(Nc2cnn(C)n2)cc1-c1cc(N2CCCC[C@@H]2C(F)(F)F)[nH]c(=O)c1 [Example 41] | 6.30 to 7.00
22 | Cc1cnc(Nc2ncn(C)n2)cc1-c1cc(N2CCCC[C@@H]2C(F)(F)F)[nH]c(=O)c1 [Example 42] | ≥ 7.00

Row | SMILES | pIC50
23 | Cc1cnc(Nc2nnn(C)n2)cc1-c1cc(N2CCCC[C@@H]2C(F)(F)F)[nH]c(=O)c1 [Example 43] | 6.30 to 7.00
24 | Cc1ccc(Nc2cc(-c3cc(N4CCCC[C@@H]4C(F)(F)F)[nH]c(=O)c3)c(C)cn2)nn1 [Example 44] | ≥ 7.00
25 | Cc1cnc(NC(=O)c2cn[nH]c2)cc1-c1cc(N2CCCC[C@@H]2C(F)(F)F)[nH]c(=O)c1 [Example 47] | 6.00 to 6.30
26 | Cc1cnc(NC(=O)C2CC2)cc1-c1cc(-c2cnccc2C(F)(F)F)[nH]c(=O)c1 [Example 48] | 6.30 to 7.00
27 | COC(=O)Nc1cc(-c2cc(-c3cccnc3C(F)(F)F)[nH]c(=O)c2)c(CF)cn1 [Example 50] | 5.00 to 6.00
28 | COC(=O)Nc1cc(-c2cc(-c3cccnc3C(F)(F)F)[nH]c(=O)c2)c(Cl)cn1 [Example 51] | 5.00 to 6.00
29 | CNC(=O)Nc1cc(-c2cc(-c3cccnc3C(F)(F)F)[nH]c(=O)c2)c(C)cn1 [Example 52] | 5.00 to 6.00
30 | CNc1cc(-c2cc(N3CCCC[C@@H]3C(F)(F)F)[nH]c(=O)c2)c(C)cn1 [Example 53] | 5.00 to 6.00
31 | Cc1cnc(NC(=O)OC2CNC2)cc1-c1cc(N2CCCC[C@@H]2C(F)(F)F)[nH]c(=O)c1 [Example 54] | 5.00 to 6.00
32 | Cc1cnc(N)cc1-c1cc(-c2cccnc2C(F)(F)F)[nH]c(=O)c1 [Example 55] | 5.00 to 6.00
33 | Cc1cnc(NC2COC2)cc1-c1cc(N2CCCC[C@@H]2C(F)(F)F)[nH]c(=O)c1 [Example 56] | 5.00 to 6.00
34 | Cc1cnc(NC(=O)[C@H]2CCN(C)C2)cc1-c1cc(N2CCCC[C@@H]2C(F)(F)F)[nH]c(=O)c1 [Example 57] | 5.00 to 6.00
35 | CNCCC(=O)N1CCN(c2cc(-c3cc(NC(=O)OC)ncc3C)cc(=O)[nH]2)[C@@H](C(F)(F)F)C1 [Example 58] | 5.00 to 6.00
36 | Cc1cnc(NC(=O)NC2CC2)cc1-c1cc(N2CCCC[C@@H]2C(F)(F)F)[nH]c(=O)c1 [Example 59] | 5.00 to 6.00
37 | CNCCC(=O)N1CCN(c2cc(-c3cc(NC(=O)OC)ncc3C)cc(=O)[nH]2)[C@@H](C)C1 [Example 60] | 5.00 to 6.00
38 | COC(=O)Nc1cc(-c2cc(N3CCN(C(=O)CCN(C)C)C[C@@H]3C(F)(F)F)[nH]c(=O)c2)c(C)cn1 [Example 61] | 5.00 to 6.00
39 | Cc1cnc(NC(=O)C2COC2)cc1-c1cc(N2CCCC[C@@H]2C(F)(F)F)[nH]c(=O)c1 [Example 62] | 5.00 to 6.00
40 | COC(=O)Nc1cc(-c2cc(N3CCN(C(=O)CCN(C)C)C[C@@H]3C)[nH]c(=O)c2)c(C)cn1 [Example 63] | 5.00 to 6.00
41 | CNCC(=O)Nc1cc(-c2cc(-c3cccnc3C(F)(F)F)[nH]c(=O)c2)c(C)cn1 [Example 64] | 5.00 to 6.00
42 | Cc1cnc(NC(=O)[C@@H]2CCN(C)C2)cc1-c1cc(N2CCCC[C@@H]2C(F)(F)F)[nH]c(=O)c1 [Example 65] | 5.00 to 6.00
43 | CNCCS(=O)(=O)Nc1ccc(-c2cc(-c3cc(NC(=O)C4CC4)ncc3C)cc(=O)[nH]2)c(C)c1 [Example 66] | 6.30 to 7.00
44 | COC[C@H]1CCCN1c1cc(-c2cc(NC(=O)OC)ncc2C)cc(=O)[nH]1 [Example 67] | 5.00 to 6.00

Row | SMILES | pIC50
45 | Cc1cnc(NC(=O)c2cnn(C)c2)cc1-c1cc(-c2cccnc2C(F)(F)F)[nH]c(=O)c1 [Example 68] | 5.00 to 6.00
46 | Cc1cnc(Nc2cnn(CCN(C)C)c2)cc1-c1cc(N2CCCC[C@@H]2C(F)(F)F)[nH]c(=O)c1 [Example 69] | 5.00 to 6.00
47 | COC(=O)Nc1cc(-c2cc(-c3cccnc3C3CC3)[nH]c(=O)c2)c(C)cn1 [Example 70] | 5.00 to 6.00
48 | Cc1cnc(Nc2ccn(C)n2)cc1-c1cc(N2CCCC[C@@H]2C(F)(F)F)[nH]c(=O)c1 [Example 71] | 5.00 to 6.00
49 | Cc1ccnc(Nc2cc(-c3cc(N4CCCC[C@@H]4C(F)(F)F)[nH]c(=O)c3)c(C)cn2)n1 [Example 72] | ≥ 7.00
50 | CNCCC(=O)Nc1cc(-c2cc(-c3cccnc3C(F)(F)F)[nH]c(=O)c2)c(C)cn1 [Example 73] | 5.00 to 6.00
51 | Cc1cnc(NC(=O)c2cnn(C3CNC3)c2)cc1-c1cc(N2CCCC[C@@H]2C(F)(F)F)[nH]c(=O)c1 [Example 74] | 5.00 to 6.00
52 | CCS(=O)(=O)N1CCN(c2cc(-c3cc(NC(=O)C4CC4)ncc3C)cc(=O)[nH]2)[C@@H](C)C1 [Example 76] | 6.30 to 7.00
53 | COC(=O)Nc1cc(-c2cc(-c3ccncc3C(F)(F)F)[nH]c(=O)c2)c(C)cn1 [Example 79] | 6.30 to 7.00
54 | Cc1nc(Nc2cc(-c3cc(N4CCCC[C@@H]4C(F)(F)F)[nH]c(=O)c3)c(C)cn2)no1 [Example 80] | 5.00 to 6.00
55 | Cc1cnc(NC(=O)C2CC2)cc1-c1cc(N2CCN(S(=O)(=O)C3CC3)C[C@@H]2C)[nH]c(=O)c1 [Example 82] | ≥ 7.00
56 | COCCS(=O)(=O)N1CCN(c2cc(-c3cc(NC(=O)C4CC4)ncc3C)cc(=O)[nH]2)[C@@H](C)C1 [Example 83] | 6.30 to 7.00
57 | Cc1cnc(NC(=O)C2CC2)cc1-c1cc(N2CCN(S(=O)(=O)c3cnn(C)c3)C[C@@H]2C)[nH]c(=O)c1 [Example 84] | ≥ 7.00
58 | Cc1cnc(NC(=O)C2CC2)cc1-c1cc(N2CCN(S(=O)(=O)CC3CC3)C[C@@H]2C)[nH]c(=O)c1 [Example 85] | ≥ 7.00
59 | Cc1cnc(NC(=O)C2CC2)cc1-c1cc(N2CCN(S(=O)(=O)c3cc(F)ccc3F)C[C@@H]2C)[nH]c(=O)c1 [Example 86] | 6.30 to 7.00
60 | COc1ccc(S(=O)(=O)N2CCN(c3cc(-c4cc(NC(=O)C5CC5)ncc4C)cc(=O)[nH]3)[C@@H](C)C2)cc1 [Example 87] | 6.30 to 7.00
61 | Cc1cnc(NC(=O)C2CC2)cc1-c1cc(N2CCN(C(=O)c3ccc(F)cc3)C[C@@H]2C)[nH]c(=O)c1 [Example 88] | 5.00 to 6.00
62 | Cc1cnc(NC(=O)C2CC2)cc1-c1cc(N2CCN(C(=O)c3cnn(C)c3)C[C@@H]2C)[nH]c(=O)c1 [Example 89] | 6.00 to 6.30
63 | COc1ccc(C(=O)N2CCN(c3cc(-c4cc(NC(=O)C5CC5)ncc4C)cc(=O)[nH]3)[C@@H](C)C2)cc1 [Example 92] | 5.00 to 6.00
64 | Cc1cnc(NC(=O)C2CC2)cc1-c1cc(N2CCN(C(=O)CC3CC3)C[C@@H]2C)[nH]c(=O)c1 [Example 93] | 5.00 to 6.00
65 | Cc1cnc(NC(=O)C2CC2)cc1-c1cc(N2CCN(C(=O)c3cccnc3)C[C@@H]2C)[nH]c(=O)c1 [Example 94] | 5.00 to 6.00
